PMC9253294, “Differential Activation of TRPM8 by the Stereoisomers of Menthol” (Frontiers in Pharmacology, 2022)

What was measured:
[1] = system: residue I846 in the S4 of TRPM8; assay: Thermodynamic mutant cycle analysis (TMCA) with patch-clamp recordings, residue I846 (I846V mutant); assay type: cell-based, mouse; conditions: WT vs I846V
Description: (§1) Murine TRPM8 was used in this study. […] Point mutations were made by Fast Mutagenesis Kit V2 (SBS Genetech). Primers were used to generate point mutations.
(§2) HEK293T cells were cultured in Dulbecco’s modified eagle medium supplemented (DMEM) with 10% fetal bovine serum and 1% penicillin-streptomycin solution at 37°C with 5% CO2. When cells grow up to 60%–70%, plasmids were transfected with lipofectamine 2000 following the manufacturer’s protocol. Patch-clamp recordings were performed 18–24 h after transfection.
Patch-clamp recordings were performed using a HEKA EPC10 amplifier driven by PatchMaster software (HEKA). Patch pipettes were prepared from borosilicate glass and fire-polished to a resistance of 4–6MΩ. A solution (pH 7.25) containing 130 mM NaCl, 0.2 mM EDTA, and 3 mM HEPES was used in both bath and pipette for recording. For whole-cell recording, cells were detached by trypsin and plated on the microscope cover glass for 30–60 min before the experiment. Transfected cells could be identified by green fluorescence. Cells were clamped at +80 mV and −80 mV for 350 ms, respectively, during recording, and the average current in the last 40 ms was performed. […]
(§3) Data from whole-cell recordings were analyzed in Igor Pro (WaveMatrix). […]
(§4) The P o of mouse TRPM8 activated by (−)-menthol was measured through single-channel recordings as in our previous study ([Xu et al., 2020]), and P o of TRPM8 mutant channels activated by (−)-menthol was estimated from noise analysis through whole-cell recordings. The mean current amplitude (I), the squared deviations in current amplitude from the mean value (σ ^2), and the single-channel current (i) were measured experimentally from a membrane patch of ion channels. Then, the number of ion channels clamped into that patch (N) is determined as N=I^2/i⋅I−σ^2.
For TRPM8 activation by other stereoisomers, P o max was measured from the concentration–response curve and L was determined from P o max by L = P o max/(1 − P o max). Both K d and L contribute to the measured apparent affinity by the equation EC50 = K d/(1 + L). […]

[2] = design: method as in Hopp, 1993; Barel et al., 2009; conditions: human taste dilution studies; ref Hopp, 1993; Barel et al., 2009; cited from earlier work
[3] = target: T1, mouse TRPM8 (Mus musculus, UniProt Q8R4D5); assay: Whole-cell patch-clamp recordings of wild-type TRPM8 in transfected HEK293T cells; assay type: cell-based; conditions: for maximum current activated: −80 mV, normalized to 2 mM (−)-menthol; for EC50: WT TRPM8, whole-cell, ~25°C
T1 construct: expressed in transfected cells; host or cells: HEK293T
Description: as §1, §2
(§5) Patch-clamp recordings were performed using a HEKA EPC10 amplifier driven by PatchMaster software (HEKA). Patch pipettes were prepared from borosilicate glass and fire-polished to a resistance of 4–6MΩ. A solution (pH 7.25) containing 130 mM NaCl, 0.2 mM EDTA, and 3 mM HEPES was used in both bath and pipette for recording. For whole-cell recording, cells were detached by trypsin and plated on the microscope cover glass for 30–60 min before the experiment. Transfected cells could be identified by green fluorescence. Cells were clamped at +80 mV and −80 mV for 350 ms, respectively, during recording, and the average current in the last 40 ms was performed. All recordings were performed at room temperature (∼25°C).
To perfuse (−)-menthol and other isomers during the patch-clamp recording, a rapid solution changer with a gravity-driven perfusion system was used (RSC-200, Bio-Logic). Each solution was delivered through a separate tube, so there was no mixing of solutions. The pipette tip was placed right in front of the perfusion outlet during recording to ensure the solution exchange was complete.
Data from whole-cell recordings were analyzed in Igor Pro (WaveMatrix). EC50 values were derived from fitting a Hill equation to the concentration–response relationship. Changes in EC50 by point mutation may be caused by either perturbation of ligand binding or channel gating or both. To distinguish these possibilities, the dissociation constant (K d) for ligand binding is estimated assuming the following gating scheme: C0↔KdC1↔LO, where L is the equilibrium constant for the final closed-to-open transition.
For TRPM8 activation by other stereoisomers, P o max was measured from the concentration–response curve and L was determined from P o max by L = P o max/(1 − P o max). Both K d and L contribute to the measured apparent affinity by the equation EC50 = K d/(1 + L).

[4] = target: T2, TRPM8 R842K mutant (Mus musculus, UniProt Q8R4D5, R842K); assay: Whole-cell patch-clamp recordings of the R842K mutant channel; assay type: cell-based; conditions: −80 mV
T2 construct: expressed in transfected cells; host or cells: HEK293T
Description: as §1, §2, §5
To perfuse (−)-menthol and other isomers during the patch-clamp recording, a rapid solution changer with a gravity-driven perfusion system was used (RSC-200, Bio-Logic). […]

[5] = system: residue D802 in the S3 of TRPM8; assay: Thermodynamic mutant cycle analysis (TMCA) with patch-clamp recordings, residue D802; assay type: cell-based, mouse; conditions: cycle (−)-menthol vs (+)-neomenthol, WT vs D802 mutant
Description: as §1, §2
Patch-clamp recordings were performed using a HEKA EPC10 amplifier driven by PatchMaster software (HEKA). […] Transfected cells could be identified by green fluorescence. […]
as §3
as §4, with “N=I^2/i⋅I−σ^2. […]” for “N=I^2/i⋅I−σ^2.”

[6] = +80 mV, compared to (−)-menthol

T1 sequence (Q8R4D5 whole entry): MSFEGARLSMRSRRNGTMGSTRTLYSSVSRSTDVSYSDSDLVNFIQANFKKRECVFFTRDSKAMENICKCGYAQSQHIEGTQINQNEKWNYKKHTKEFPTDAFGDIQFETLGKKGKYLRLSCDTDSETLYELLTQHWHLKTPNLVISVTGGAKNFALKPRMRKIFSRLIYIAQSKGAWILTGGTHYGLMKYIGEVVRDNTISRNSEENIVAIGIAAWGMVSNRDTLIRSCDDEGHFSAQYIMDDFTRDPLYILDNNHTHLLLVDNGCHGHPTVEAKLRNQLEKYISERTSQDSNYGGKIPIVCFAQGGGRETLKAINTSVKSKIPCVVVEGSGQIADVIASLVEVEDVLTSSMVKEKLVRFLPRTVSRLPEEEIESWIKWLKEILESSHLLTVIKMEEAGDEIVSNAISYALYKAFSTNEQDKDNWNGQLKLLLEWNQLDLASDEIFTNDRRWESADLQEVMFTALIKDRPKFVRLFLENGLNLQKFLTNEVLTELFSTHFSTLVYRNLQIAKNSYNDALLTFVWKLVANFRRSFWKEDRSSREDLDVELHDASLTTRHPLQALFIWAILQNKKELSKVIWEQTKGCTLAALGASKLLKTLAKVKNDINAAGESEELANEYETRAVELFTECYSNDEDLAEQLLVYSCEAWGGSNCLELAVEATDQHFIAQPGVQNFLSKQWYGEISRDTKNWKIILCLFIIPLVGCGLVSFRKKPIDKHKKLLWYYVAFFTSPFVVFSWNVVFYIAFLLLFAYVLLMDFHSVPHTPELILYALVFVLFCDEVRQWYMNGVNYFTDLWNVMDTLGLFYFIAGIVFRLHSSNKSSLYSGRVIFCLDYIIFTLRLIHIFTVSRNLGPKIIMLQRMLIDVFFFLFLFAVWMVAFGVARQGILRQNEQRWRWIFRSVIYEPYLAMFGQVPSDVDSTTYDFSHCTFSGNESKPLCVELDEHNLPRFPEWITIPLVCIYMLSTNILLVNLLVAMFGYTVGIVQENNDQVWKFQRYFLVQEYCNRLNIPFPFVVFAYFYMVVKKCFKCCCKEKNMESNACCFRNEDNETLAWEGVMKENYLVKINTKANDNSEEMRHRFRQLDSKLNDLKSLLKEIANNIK
T2 sequence (Q8R4D5 whole entry R842K): as the sequence (Q8R4D5 whole entry) above, with R842K counted along it

SMILES	coupling energy ([1]; +80 mV, cycle (−)-menthol vs (+)-neoisomenthol) [kT]	coupling energy ([1]; −80 mV, cycle (−)-menthol vs (+)-neoisomenthol) [kT]	cooling thresholds [2]	Kd (binding affinity from gating scheme) [3, 6]	maximum current activated [3]	EC50 ([3]; +80 mV) [µM]	coupling energy ([1]; ±80 mV, cycle (−)-menthol vs (+)-neomenthol, threshold 1.5 kT)	activation of the R842K mutant [4]	coupling energy ([5]; +80 mV) [kT]	coupling energy ([5]; −80 mV) [kT]	L value (gating equilibrium constant) [3, 6]
CC(C)[C@H]1CC[C@@H](C)C[C@H]1O [(+)-neoisomenthol]	3.25 ± 0.11	3.10 ± 0.18	much higher cooling thresholds	slightly decreased affinity	much reduced	–	–	–	–	–	–
CC(C)[C@@H]1CC[C@@H](C)C[C@H]1O [(−)-menthol]	–	–	lowest cooling thresholds	–	–	62.6 ± 1.2	–	–	–	–	–
CC(C)[C@@H]1CC[C@@H](C)C[C@@H]1O [(+)-neomenthol]	–	–	–	slightly decreased affinity	much reduced	206 ± 11.4	large coupling energy values	cannot activate	1.81 ± 0.10	2.12 ± 0.06	significantly reduced
